Results on 23 compounds are retold here after US20250171423A1, “PHARMACEUTICAL COMPOUNDS FOR THE TREATMENT OF COMPLEMENT MEDIATED DISORDERS” (Achillion Pharmaceuticals, Inc., priority 2020, published 2025).

Some results are limits rather than exact numbers.

The assay addresses T1, Human complement C1s enzyme (Homo sapiens, UniProt P09871).
T1 construct: purified from human serum, Complement Technology, Inc; purchased Complement Technology, Inc; host or cells: human serum
T1 sequence (P09871 438-688 limits assumed): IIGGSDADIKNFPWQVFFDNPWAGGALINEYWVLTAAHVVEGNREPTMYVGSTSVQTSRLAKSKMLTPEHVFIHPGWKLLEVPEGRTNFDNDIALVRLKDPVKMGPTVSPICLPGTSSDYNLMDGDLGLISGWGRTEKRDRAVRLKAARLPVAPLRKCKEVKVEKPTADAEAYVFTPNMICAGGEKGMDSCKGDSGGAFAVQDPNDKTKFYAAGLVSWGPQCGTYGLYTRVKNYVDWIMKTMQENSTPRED
T1 sequence (P09871 16-437 partner limits assumed): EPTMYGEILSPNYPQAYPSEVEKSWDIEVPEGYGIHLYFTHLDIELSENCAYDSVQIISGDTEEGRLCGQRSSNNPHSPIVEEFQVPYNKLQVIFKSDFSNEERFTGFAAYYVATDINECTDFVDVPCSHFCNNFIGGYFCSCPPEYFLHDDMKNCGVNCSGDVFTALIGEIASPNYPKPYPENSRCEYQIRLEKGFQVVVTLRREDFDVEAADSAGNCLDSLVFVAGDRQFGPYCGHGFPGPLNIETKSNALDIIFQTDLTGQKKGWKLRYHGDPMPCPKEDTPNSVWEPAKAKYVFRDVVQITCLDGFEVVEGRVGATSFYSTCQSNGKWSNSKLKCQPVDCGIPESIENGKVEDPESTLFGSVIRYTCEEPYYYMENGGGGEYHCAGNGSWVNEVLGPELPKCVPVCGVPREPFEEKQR
Briefly: Human C1s Enzyme Assay. The class given is biochemical. As to conditions: human C1s 1.16 nM, 5 min preincubation, substrate Z-L-Lys-SBzl 100 μM, A405; read-out: C1s Protease Activity. In a few lines:
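IC50 values were fitted by nonlinear regression to rates measured as A405 every 30 s for 30 min. The thioester substrate Z-L-Lys-SBzl and Ellman's reagent were each at 100 μM. Serum-derived C1s at 1.16 nM final had 5 min of room-temperature preincubation with compound (pH 7.5 Tris buffer, 1 M NaCl).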
Regarding `C[C@@H](NC(=O)[C@@H]1C[C@@H](OC(F)F)CN1C(=O)CNC(=O)c1ccc(C(=O)c2ccccc2)cc1)c1cc(C(=N)N)cs1` [Compound 203, (2S,4R)-1-((4-benzoylbenzoyl)glycyl)-N-((R)-1-(4-carbamimidoylthiophen-2-yl)ethyl)-4-(difluoromethoxy)pyrrolidine-2-carboxamide], the IC50 was less than 0.1 µM.

For `N=C(N)c1csc(CNC(=O)[C@@H]2C[C@]3(CO)C[C@@H]3N2C(=O)CNC(=O)CCCOc2ccccc2)c1` [Compound 84, (1S,3S,5R)-N-((4-carbamimidoylthiophen-2-yl)methyl)-5-(hydroxymethyl)-2-((4-phenoxybutanoyl)glycyl)-2-azabicyclo[3.1.0]hexane-3-carboxamide], the IC50 lay in the range of 0.1 to 1 µM.

Take `C[C@@H](NC(=O)[C@@H]1C[C@](F)(CF)CN1C(=O)CNC(=O)c1ccc(C(=O)c2ccccc2)cc1)c1cc(C(=N)N)cs1` [Compound 202, (2S,4R)-1-((4-benzoylbenzoyl)glycyl)-N-((R)-1-(4-carbamimidoylthiophen-2-yl)ethyl)-4-fluoro-4-(fluoromethyl)pyrrolidine-2-carboxamide]: the IC50 is less than 0.1 µM.

Consider `CCCCCCOC(=O)/N=C(\N)c1csc(CNC(=O)[C@@H]2C[C@]3(C)C[C@@H]3N2C(=O)CNC(=O)c2ccc(Oc3ccccc3)cc2)c1` [Compound 12, hexyl ((Z)-amino(5-(((1S,3S,5S)-5-methyl-2-((4-phenoxybenzoyl)glycyl)-2-azabicyclo-[3.1.0]hexane-3-carboxamido)methyl)thiophen-3-yl)methylene)carbamate], for which the IC50 was more than 1 µM.

Turning to `CC(=O)NCCOC[C@@]12C[C@@H]1N(C(=O)CNC(=O)c1ccc(Oc3ccccc3)cc1)[C@H](C(=O)N[C@H](C)c1cc(C(=N)N)cs1)C2` [Compound 141, (1S,3S,5R)-5-((2-acetamidoethoxy)methyl)-N-((R)-1-(4-carbamimidoylthiophen-2-yl)ethyl)-2-((4-phenoxybenzoyl)glycyl)-2-azabicyclo[3.1.0]hexane-3-carboxamide], the IC50 was less than 0.1 µM.

With `N=C(N)c1csc([C@H](NC(=O)[C@@H]2CC3(CN2C(=O)CNC(=O)CCCOc2ccccc2)OCCO3)C2CCCC2)c1` [Compound 174, (S)-N-((R)-(4-carbamimidoylthiophen-2-yl)(cyclopentyl)methyl)-7-((4-phenoxybutanoyl)glycyl)-1,4-dioxa-7-azaspiro[4.4]nonane-8-carboxamide], the IC50 was more than 1 µM.

`C[C@@]12C[C@@H]1N(C(=O)CNC(=O)CCCOc1cccc3ccccc13)[C@H](C(=O)NCc1cc(C(=N)N)cs1)C2` [Compound 207, (1S,3S,5S)-N-((4-carbamimidoylthiophen-2-yl)methyl)-5-methyl-2-((4-(naphthalen-1-yloxy)butanoyl)glycyl)-2-azabicyclo[3.1.0]hexane-3-carboxamide]: the IC50 was less than 0.1 µM.

For `C[C@@]12C[C@@H]1N(C(=O)CNC(=O)c1ccc(Oc3ccc(C(F)(F)F)cn3)cc1)[C@H](C(=O)NCc1cc(C(=N)N)cs1)C2` [Compound 154, (1S,3S,5S)-N-((4-carbamimidoylthiophen-2-yl)methyl)-5-methyl-2-((4-((5-(trifluoromethyl)pyridin-2-yl)oxy)benzoyl)glycyl)-2-azabicyclo[3.1.0]hexane-3-carboxamide], the IC50 is less than 0.1 µM.

For the compound `N=C(N)c1csc(CNC(=O)[C@@H]2C[C@@H](c3ccc(F)cc3)CN2C(=O)CNC(=O)CCCOc2ccccc2)c1` [Compound 164, (2S,4S)-N-((4-carbamimidoylthiophen-2-yl)methyl)-4-(4-fluorophenyl)-1-((4-phenoxybutanoyl)glycyl)pyrrolidine-2-carboxamide], the IC50 was less than 0.1 µM.

On to `N=C(N)c1csc(CNC(=O)[C@@H]2C[C@@]3(CCO3)CN2C(=O)CNC(=O)c2ccc(Oc3ccccc3)cc2)c1` [Compound 194, (4R,7S)-N-((4-carbamimidoylthiophen-2-yl)methyl)-6-((4-phenoxybenzoyl)glycyl)-1-oxa-6-azaspiro[3.4]octane-7-carboxamide], for which the IC50 was less than 0.1 µM.

In the case of `C[C@@]12C[C@@H]1N(C(=O)CNC(=O)c1ccc(C3(c4ccccc4)COC3)cc1)[C@H](C(=O)NCc1cc(C(=N)N)cs1)C2` [Compound 168, (1S,3S,5S)-N-((4-carbamimidoylthiophen-2-yl)methyl)-5-methyl-2-((4-(3-phenyloxetan-3-yl)benzoyl)glycyl)-2-azabicyclo[3.1.0]hexane-3-carboxamide], the IC50 is less than 0.1 µM.

For the compound `C[C@@]12C[C@@H]1N(C(=O)CNC(=O)c1ccc(Oc3ccc(S(C)(=N)=O)cc3)cc1)[C@H](C(=O)NCc1cc(C(=N)N)cs1)C2` (stereo partly drawn) [Compound 3, (1S,3S,5S)-N-((4-carbamimidoylthiophen-2-yl)methyl)-5-methyl-2-((4-(4-(S-methyl-sulfonimidoyl)phenoxy)benzoyl)glycyl)-2-azabicyclo[3.1.0]hexane-3-carboxamide], the IC50 is less than 0.1 µM.

`C[C@@]12C[C@@H]1N(C(=O)CNC(=O)c1ccc(Oc3ccc(P(C)(=O)O)cc3)cc1)[C@H](C(=O)NCc1cc(C(=N)N)cs1)C2` [Compound 53, (4-(4-((2-((1S,3S,5S)-3-(((4-carbamimidoylthiophen-2-yl)methyl)carbamoyl)-5-methyl-2-azabicyclo[3.1.0]hexan-2-yl)-2-oxoethyl)carbamoyl)phenoxy)phenyl)-(methyl)phosphinic acid]: the IC50 lay within 0.1 to 1 µM.

As for `Cc1cccc([C@H]2C[C@@H](C(=O)NCc3cc(C(=N)N)cs3)N(C(=O)CNC(=O)CCCOc3ccccc3)C2)c1` [Compound 170, (2S,4R)-N-((4-carbamimidoylthiophen-2-yl)methyl)-1-((4-phenoxybutanoyl)glycyl)-4-(m-tolyl)pyrrolidine-2-carboxamide], the IC50 was less than 0.1 µM.

With `N=C(N)c1csc(CNC(=O)[C@@H]2C[C@@H](N3CCCC3)CN2C(=O)CNC(=O)c2ccc(Oc3ccccc3)cc2)c1` [Compound 48, (3′R,5'S)-N-((4-carbamimidoylthiophen-2-yl)methyl)-1′-((4-phenoxybenzoyl)glycyl)-[1,3′-bipyrrolidine]-5′-carboxamide], the IC50 was less than 0.1 µM.

In the case of `C[C@@]12C[C@@H]1N(C(=O)CNC(=O)c1ccc(Oc3ccccc3)nc1)[C@H](C(=O)NCc1cc(C(=N)N)cs1)C2` [Compound 143, (1S,3S,5S)-N-((4-carbamimidoylthiophen-2-yl)methyl)-5-methyl-2-((6-phenoxynicotinoyl)glycyl)-2-azabicyclo[3.1.0]hexane-3-carboxamide], the IC50 is less than 0.1 µM.

In the case of `COC[C@H]1C[C@@H](C(=O)N[C@H](C)c2cc(C(=N)N)cs2)N(C(=O)CNC(=O)c2ccc(Oc3ccccc3)cc2)C1` (relative stereo) [Compound 252, (2S,4S*)-N-((R)-1-(4-carbamimidoylthiophen-2-yl)ethyl)-4-(methoxymethyl)-1-((4-phenoxybenzoyl)glycyl)pyrrolidine-2-carboxamide], the IC50 was less than 0.1 µM.

With `C[C@@H](NC(=O)[C@@H]1C[C@@H](S(C)(=O)=O)CN1C(=O)CNC(=O)CCCOc1ccc(F)cc1)c1cc(C(=N)N)cs1` [Compound 107, (2S,4R)-N-((R)-1-(4-carbamimidoylthiophen-2-yl)ethyl)-1-((4-(4-fluorophenoxy)-butanoyl)glycyl)-4-(methylsulfonyl)pyrrolidine-2-carboxamide], the IC50 was less than 0.1 µM.

`C[C@@]12C[C@@H]1N(C(=O)CNC(=O)c1ccc(Oc3ccccc3)cn1)[C@H](C(=O)NCc1cc(C(=N)N)cs1)C2` [Compound 93, (1S,3S,5S)-N-((4-carbamimidoylthiophen-2-yl)methyl)-5-methyl-2-((5-phenoxy-picolinoyl)glycyl)-2-azabicyclo[3.1.0]hexane-3-carboxamide]: the IC50 was less than 0.1 µM.

Regarding `C[C@@]12C[C@@H]1N(C(=O)CNC(=O)c1ccc3c(c1)-c1ccccc1C3(F)F)[C@H](C(=O)NCc1cc(C(=N)N)cs1)C2` [Compound 103, (1S,3S,5S)-N-((4-carbamimidoylthiophen-2-yl)methyl)-2-((9,9-difluoro-9H-fluorene-3-carbonyl)glycyl)-5-methyl-2-azabicyclo[3.1.0]hexane-3-carboxamide], the IC50 was less than 0.1 µM.

As for `C[C@@H](NC(=O)[C@@H]1C[C@@H](S(C)(=O)=O)CN1C(=O)CNC(=O)CCCOc1ccccc1)c1cc(C(=N)N)cs1` [Compound 125, (2S,4R)-N-((R)-1-(4-carbamimidoylthiophen-2-yl)ethyl)-4-(methylsulfonyl)-1-((4-phenoxybutanoyl)glycyl)pyrrolidine-2-carboxamide], the IC50 is less than 0.1 µM.

Regarding `CC(=O)NCc1cc(C(=O)NCC(=O)N2[C@H]3C[C@@]3(C)C[C@H]2C(=O)NCc2cc(C(=N)N)cs2)ccc1Oc1ccccc1` [Compound 10], the IC50 is less than 0.1 µM.

With `N=C(N)c1csc(CNC(=O)[C@@H]2CCC(=O)N2C(=O)CNC(=O)c2ccc(Oc3ccccc3)cc2)c1` [Compound 7, (S)-N-((4-carbamimidoylthiophen-2-yl)methyl)-5-oxo-1-((4-phenoxybenzoyl)glycyl)-pyrrolidine-2-carboxamide], the IC50 is less than 0.1 µM.
